Test results from PMC5296862, “Targeting the molecular chaperone SlyD to inhibit bacterial growth with a small molecule” (Scientific Reports, 2017).

Target: T1, SlyD (EcSlyD) (Escherichia coli, UniProt P0A9K9)
T1 construct: residues 1–165, lacking the unstructured C-terminal tail
Assay: intrinsic fluorescence titration; supported by 2D 1H-15N HSQC NMR titration, in-cell NMR and PPIase inhibition (Ki […])
Type: binding

T1 sequence (P0A9K9 1-165): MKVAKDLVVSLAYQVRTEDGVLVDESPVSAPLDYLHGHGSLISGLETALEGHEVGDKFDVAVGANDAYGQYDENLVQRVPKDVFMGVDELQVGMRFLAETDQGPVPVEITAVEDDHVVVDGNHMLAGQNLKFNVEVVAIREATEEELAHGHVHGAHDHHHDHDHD

[Cu+2].c1ccc(-c2cc(-c3c4ccccc4cc4ccccc34)cc(-c3ccccn3)n2)nc1.c1ccc(-c2cc(-c3c4ccccc4cc4ccccc34)cc(-c3ccccn3)n2)nc1 [Cu2+ complex]
Kd: 45 µM
